Measurements: US6017883A, “Composition and methods for the inhibition of phagocytes” (Research Corporation Technologies, Inc., priority 1998, dated 2000)
Where no end group is shown, it is not given here.

Experiments:
PMN [1] = assay: PMN viability by LDH release; details: concentrations that inhibited chemotaxis and oxidant production
Protocol: PMN viability after exposure to NIP (seq id no:1) or control peptide for varying amounts of time was assessed by measuring LDH release using a commercially available kit (Sigma).

PMN [2] = assay: fMLP-induced PMN calcium transients; assay type: cell-based, human; details: pertussis toxin pretreatment of indo-loaded PMN
PMN [3] = details: pertussis toxin pretreatment of indo-loaded PMN

Row | Substance | cellular viability as determined by LDH release (PMN [1]) | rise in cytosolic calcium concentration induced by 1 μM fMLP (PMN [2]) | ionomycin-induced rise in cytosolic calcium (PMN [3])
1 | REGSYFFGDNA [NIP, Arg-Glu-Gly-Ser-Tyr-Phe-Phe-Gly-Asp-Asn-Ala] | did not significantly alter cellular viability | – | –
2 | pertussis toxin | – | Attenuation | no effect
